Here are results for 7 compounds from patent US20110112044A1, “NOVEL USES OF D-MANNOPYRANOSE DERIVATIVES” (CENTRE NATIONAL DE LA RECHERCHE SCIENTIFIQUE, priority 2008, published 2011).

This assay deals with chorioallantoic membrane (CAM) of chick embryo. Briefly: Chick embryo chorioallantoic membrane (CAM) angiogenesis assay. It is filed as in vivo, chick (white Leghorn). The note with it: 20 μL of 6 mg/mL in PBS on nitrocellulose disk placed on CAM on 7th day, observed 12th day, estimated visually. The text has this:
In this example, the activity of mannose-6-phosphate (M6P) and of the compounds of formulae (I-1), (I-2) and (I-3) as prepared in examples 1 to 3 above, respectively, on the inhibition of angiogenesis was studied, in comparison with three D-mannopyranoside (DM) derivatives having pro-angiogenic activity and thus not forming part of the invention (DM1: methyl 7-amino-6,7-dideoxy-α-D-mannopyranoside; DM2: methyl 6-azido-6-deoxy-α-D-mannopyranoside and DM3: methyl 7-disodiumphosphonato-6,7-dideoxy-α-D-mannohepto-pyranoside). This study was performed on chick embryos according to the method described by Ribatti D. et al., Nat. Protoc., 2006, 1(1), 85-91 with a few minor modifications.
This study was performed on the chorioallantoic membrane (CAM) of chick embryo. The CAM is an extra-embryonic membrane formed on the fourth day of incubation by fusion of the chorion and of the allantois. It allows gas exchange between the chick embryo and the extra-embryonic environment up to the time of birth. This CAM is composed of a very thick capillary network that forms a continuous surface in direct contact with the shell. Rapid capillary proliferation of this membrane continues up to the 11th day; the mitotic index then decreases rapidly and the vascular system reaches its final organization on the 18th day, just before birth (hatching on the 21st day).
Fertilized eggs of a hen of the white Leghorn race were placed in an incubator from the start of embryogenesis, where they were kept under constant humidity at a temperature of 38° C. On the second day of incubation, a window was opened in the shell after removal of 2 to 3 mL of albumin in order to detach the CAM from the shell. The window was then sealed with adhesive tape and the egg was returned to the incubator to continue its development up to the date of the experiment. On the 7th day, pieces of inert synthetic polymers (nitrocellulose filter disks 0.4 cm in diameter) were soaked with 20 μL of each of the solutions of the test compounds (6 mg/mL in PBS) and then positioned on the CAM. The impact of the test substances on the angiogenesis was then observed on the 12th day and the quantitative evaluation of the pro- or anti-angiogenic response was estimated visually.
As to `CO[C@H]1O[C@H](CCS(=O)(=O)[O-])[C@@H](O)[C@H](O)[C@@H]1O.[Na+]` [(I-1), Methyl 6,7-Dideoxy-7-Sodiumsulfonato-α-d-mannoheptopyranoside], the “effect on the vascularization of chick embryos” value (shortened to “effect on the vascularization”) was “inhibitory effect”.

Take `CO[C@H]1OC(CC(=O)O)[C@@H](O)C(O)C1O` (stereo partly drawn) [(I-2), (Methyl 6,7-Dideoxy-α-D-Mannoheptopyranosine)uronic acid]: the “effect on the vascularization” value is reported as “inhibitory effect”. In the case of `CO[C@H]1OC(CC(C(=O)O)C(=O)O)[C@@H](O)C(O)C1O` (stereo partly drawn) [(I-3), methyl 6-deoxy-6-malonate-α-D-Mannopyranoside] it was “inhibitory effect”; in that of `CO[C@H]1O[C@H](CCN)[C@@H](O)[C@H](O)[C@@H]1O` [DM1, methyl 7-amino-6,7-dideoxy-α-D-mannopyranoside, reference compound], “activating effect”; in that of `CO[C@H]1O[C@H](CN=[N+]=[N-])[C@@H](O)[C@H](O)[C@@H]1O` [DM2, methyl 6-azido-6-deoxy-α-D-mannopyranoside, reference compound], “activating effect”.

With `CO[C@H]1O[C@H](CCP(=O)([O-])[O-])[C@@H](O)[C@H](O)[C@@H]1O.[Na+].[Na+]` [DM3, methyl 7-disodiumphosphonato-6,7-dideoxy-α-D-mannohepto-pyranoside, reference compound], the “effect on the vascularization” value is on record as “activating effect”. In the case of `COC1O[C@H](COP(=O)(O)O)[C@@H](O)[C@H](O)[C@@H]1O` (stereo partly drawn) [M6P, methyl D-mannopyranoside 6-phosphate] it was “inhibitory effect”.
